In article PMC4077706, “Lifting the Mask: Identification of New Small Molecule Inhibitors of Uropathogenic Escherichia coli Group 2 Capsule Biogenesis” (PLoS ONE, 2014):

How the values were obtained:
E. coli UTI89 = assay: Human serum sensitization (MTT); type: cell-based, Escherichia coli; conditions: 50 µM, pooled human serum, vs DMSO p = 0.0067
[1] = molecular target: T1, Androgen (Testosterone) AR (Rattus norvegicus, UniProt P15207); type: binding; conditions: 10 µM
T1 construct: Eurofins Panlabs (assay Cat #) 285010; host or cells: E. coli

Neuropeptide Y Y1 = molecular target: T2, Neuropeptide Y Y1 (Homo sapiens, UniProt P25929); assay: Radioligand binding 257010; conditions: 10 µM
T2 construct: Human SK-N-MC cells; host or cells: SK-N-MC cells
T2 sequence (P25929 whole entry): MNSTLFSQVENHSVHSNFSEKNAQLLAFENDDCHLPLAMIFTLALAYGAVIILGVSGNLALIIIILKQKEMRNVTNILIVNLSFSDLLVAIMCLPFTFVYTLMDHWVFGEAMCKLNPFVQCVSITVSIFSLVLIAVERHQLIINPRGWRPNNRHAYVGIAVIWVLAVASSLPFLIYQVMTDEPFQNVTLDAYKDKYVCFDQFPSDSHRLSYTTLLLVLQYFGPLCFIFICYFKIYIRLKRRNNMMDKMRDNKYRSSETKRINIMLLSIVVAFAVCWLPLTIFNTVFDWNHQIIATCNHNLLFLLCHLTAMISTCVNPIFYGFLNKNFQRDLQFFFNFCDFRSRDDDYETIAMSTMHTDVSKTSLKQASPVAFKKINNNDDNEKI

T1 sequence (P15207 607-902): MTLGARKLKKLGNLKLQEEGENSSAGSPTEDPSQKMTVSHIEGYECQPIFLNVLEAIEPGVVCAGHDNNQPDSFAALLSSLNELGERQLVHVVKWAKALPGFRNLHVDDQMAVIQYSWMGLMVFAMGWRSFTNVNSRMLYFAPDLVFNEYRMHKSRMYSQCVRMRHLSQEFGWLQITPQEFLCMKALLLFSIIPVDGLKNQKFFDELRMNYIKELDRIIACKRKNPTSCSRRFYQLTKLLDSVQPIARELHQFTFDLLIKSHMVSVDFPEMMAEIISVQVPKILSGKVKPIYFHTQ

CCOc1ccc(-c2cc(NC(=O)c3c(F)cccc3F)c(C(=O)O)s2)cc1 [DU011]
serum-mediated killing of UPEC (MTT) (E. coli UTI89): further increased serum-mediated killing
% Inh. [1]: 5%
% Inh. (Neuropeptide Y Y1): 2%
